TGI data for 12 compounds are collected here from PubChem BioAssay (NCI).

The structures appear in SMILES notation.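 Each compound was tested at five concentrations against cells in 96-well plates for 48 hours. TGI is the concentration that stops growth completely.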 Where a SMILES comes first, the peptide text is derived from it. The star is where a group is joined. Bn = c1ccc(C*)cc1 Where only a bound is given, the exact number is not on record here.

Among the test systems are DU-145 prostate; HCT-116 colon; HCT-15 colon; HOP-92 NSCLC; IGROV1 ovarian; MALME-3M melanoma; MDA-MB-231 breast; MDA-MB-435; OVCAR-8 ovarian; SF-268 CNS.
Common to all, as to assay: NCI-60 cell line screen, 48 h

With `CC12CC1C(c1cccc([N+](=O)[O-])c1)(c1cccc([N+](=O)[O-])c1)N=N2` (stereo not given), the TGI was greater than 100 µM with DU-145 prostate; 33.8 µM in the experiment on HCT-116 colon; 44 µM in the experiment with HCT-15 colon; 34.7 µM with HOP-92 NSCLC; 60.5 µM in the experiment on IGROV1 ovarian; 53.1 µM in the experiment with MALME-3M melanoma. Besides, the TGI is 39.1 µM in the experiment on MDA-MB-231 breast, greater than 100 µM with MDA-MB-435, 74.4 µM with OVCAR-8 ovarian and greater than 100 µM in the experiment with SF-268 CNS.

Consider `Cn1ccnc1Sc1ccc(C=Nc2ccc3nc(SCC(=O)NC4CCCCC4)sc3c2)cc1[N+](=O)[O-]`, for which the TGI with DU-145 prostate was greater than 100 µM; with HCT-116 colon it was greater than 100 µM; in the experiment with HCT-15 colon it was greater than 100 µM; with HOP-92 NSCLC, 32.5 µM; in the experiment with IGROV1 ovarian it was greater than 100 µM; in the experiment with MALME-3M melanoma, greater than 100 µM. The TGI in the experiment with MDA-MB-231 breast is 99.4 µM; with MDA-MB-435, greater than 100 µM; with OVCAR-8 ovarian, greater than 100 µM; in the experiment on SF-268 CNS, greater than 100 µM.

As for `COc1ccccc1N1CCN(CCCNC(=O)c2cc(Cl)c(N)c(Cl)c2)CC1`, the TGI with DU-145 prostate is greater than 100 µM; in the experiment on HCT-116 colon it was greater than 100 µM; in the experiment on HCT-15 colon, greater than 100 µM; in the experiment on HOP-92 NSCLC it was 31.4 µM; in the experiment on IGROV1 ovarian, greater than 100 µM; in the experiment with MALME-3M melanoma, 37.7 µM. For the same compound, the TGI with MDA-MB-231 breast, in the experiment with MDA-MB-435, with OVCAR-8 ovarian and in the experiment with SF-268 CNS was greater than 100 µM in each case.

In the case of `COc1ccc(/C=N/N2C(=O)c3c(N)c(C#N)c(-c4ccccc4)c(-c4ccccc4)c3C2=O)cc1`, the TGI in the experiment on DU-145 prostate, in the experiment with HCT-116 colon, with HCT-15 colon, in the experiment on HOP-92 NSCLC, with IGROV1 ovarian and in the experiment on MALME-3M melanoma was greater than 100 µM throughout. Further, the TGI in the experiment with MDA-MB-231 breast, in the experiment on MDA-MB-435, with OVCAR-8 ovarian and in the experiment on SF-268 CNS was greater than 100 µM each time.

Consider `O=C(O)c1ccc2c(c1)CC1(C2)Cc2cc3c(cc2C1=O)CCC3` (stereo not given), for which the TGI in the experiment on DU-145 prostate, in the experiment with HCT-116 colon, in the experiment with HCT-15 colon, in the experiment on HOP-92 NSCLC, with IGROV1 ovarian and in the experiment on MALME-3M melanoma was greater than 100 µM each time. In addition, the TGI in the experiment with MDA-MB-231 breast, in the experiment on MDA-MB-435, in the experiment with OVCAR-8 ovarian and in the experiment on SF-268 CNS was greater than 100 µM in each case.

Consider `CC1=C[C@@H](C)C[C@]2(C)CC[C@H](O2)[C@]23CC[C@](C(=O)O)(C[C@H](O2)[C@@H]2O[C@@](C)(CC2=O)[C@@H](O)[C@H]2CC[C@@]4(CCC[C@@H](O4)[C@H](C)C(=O)O[C@H]4C[C@H]([C@]5(O)OCC[C@H](C)[C@@H]5O)O[C@H]4C=C1)O2)O3`, for which the TGI is greater than 10 µM in the experiment with DU-145 prostate; greater than 10 µM in the experiment on HCT-116 colon; greater than 10 µM in the experiment with HCT-15 colon; greater than 8.25 µM in the experiment with HOP-92 NSCLC; greater than 10 µM in the experiment on IGROV1 ovarian; greater than 10 µM in the experiment on MALME-3M melanoma. Also, the TGI in the experiment on MDA-MB-231 breast, in the experiment with MDA-MB-435, with OVCAR-8 ovarian and with SF-268 CNS was greater than 10 µM throughout.

With `O=C1CCc2ccc3c(c21)CC1(Cc2ccccc2C1)C3`, the TGI was greater than 100 µM in the experiment on DU-145 prostate; 17.6 µM in the experiment on HCT-116 colon; greater than 100 µM in the experiment on HCT-15 colon; 45.9 µM in the experiment with HOP-92 NSCLC; greater than 100 µM in the experiment with IGROV1 ovarian; 70.5 µM in the experiment on MALME-3M melanoma. Further, the TGI was 40.2 µM with MDA-MB-231 breast, greater than 100 µM with MDA-MB-435, greater than 100 µM with OVCAR-8 ovarian and greater than 100 µM in the experiment on SF-268 CNS.

As to `OCC(O)C(O)C(O)/C=N/Nc1nc(O)c(/C=C2\C=Nc3ccccc32)[nH]1` (stereo not given), the TGI in the experiment on DU-145 prostate, in the experiment with HCT-116 colon, with HCT-15 colon, with HOP-92 NSCLC, in the experiment on IGROV1 ovarian and in the experiment with MALME-3M melanoma was greater than 100 µM in each case. Further, the TGI in the experiment with MDA-MB-231 breast, in the experiment with MDA-MB-435, in the experiment on OVCAR-8 ovarian and with SF-268 CNS was greater than 100 µM in each case.

Take `Clc1ccc(Cl)c(SCCCN2CCNCC2)c1`: the TGI in the experiment with DU-145 prostate was 36 µM; in the experiment on HCT-116 colon, 41.5 µM; in the experiment with HCT-15 colon it was 40.7 µM; in the experiment on HOP-92 NSCLC, 32.6 µM; in the experiment with IGROV1 ovarian, 42.2 µM; in the experiment with MALME-3M melanoma it was 31.8 µM. The TGI with MDA-MB-231 breast was found to be 31.7 µM; in the experiment on MDA-MB-435, 41.4 µM; in the experiment on OVCAR-8 ovarian, 46 µM; in the experiment with SF-268 CNS, 33.9 µM.

Take `CCc1nc2cc3cccnc3c(Cl)c2[nH]c1=O`: the TGI in the experiment with DU-145 prostate, in the experiment with HCT-116 colon, in the experiment on HCT-15 colon, in the experiment on HOP-92 NSCLC, with IGROV1 ovarian and in the experiment with MALME-3M melanoma was greater than 100 µM each time. Besides, the TGI in the experiment on MDA-MB-231 breast, with MDA-MB-435, in the experiment with OVCAR-8 ovarian and in the experiment on SF-268 CNS was greater than 100 µM each time.

With `COC(=O)C(CC(C)C)NC(=O)C(N)Cc1ccc(OCc2ccccc2)cc1` (stereo not given) (H-Tyr(Bn)-Leu-OMe; configuration not given here), the TGI was greater than 10 µM with DU-145 prostate; greater than 10 µM with HCT-116 colon; greater than 10 µM with HCT-15 colon; greater than 10 µM with HOP-92 NSCLC; greater than 10 µM in the experiment on IGROV1 ovarian; 6.62 µM with MALME-3M melanoma. Besides, the TGI in the experiment on MDA-MB-231 breast, with MDA-MB-435, in the experiment on OVCAR-8 ovarian and with SF-268 CNS was greater than 10 µM throughout.

Turning to `O=C(CCc1cccc(O)c1)NCCCNC(=O)CCc1cccc(O)c1`, the TGI in the experiment with DU-145 prostate, with HCT-116 colon, in the experiment on HCT-15 colon, in the experiment on HOP-92 NSCLC, with IGROV1 ovarian and in the experiment on MALME-3M melanoma was greater than 100 µM each time. In addition, the TGI with MDA-MB-231 breast, with MDA-MB-435, in the experiment on OVCAR-8 ovarian and in the experiment on SF-268 CNS was greater than 100 µM throughout.
